One series addresses Tdp1 (Homo sapiens, UniProt Q9NUW8). Description: Recombinant Tdp1 assay. The series is classed as biochemical.
A further series has as its system SF-539. The series is described as follows: NCI-60 cytotoxicity, SF-539. The settings on record: Homo sapiens, SF-539, read-out: Cytotoxicity (GI50) CNS SF-539.
A further series relates to UACC-62. The series is described as follows: NCI-60 cytotoxicity, UACC-62. The settings on record: Homo sapiens, UACC-62, read-out: Cytotoxicity (GI50) Melanoma UACC-62.
A further series relates to SN12C. Description: NCI-60 cytotoxicity, SN12C. The settings on record: Homo sapiens, read-out: Cytotoxicity (GI50) Renal SN12C.
For the next series, the system named is MCF-7. The series is described as follows: NCI-60 cytotoxicity, MCF-7. The settings on record: Homo sapiens, MCF7, read-out: Cytotoxicity (GI50) Breast MCF-7.
In another series the target is T1, Top1 (Homo sapiens, UniProt P11387).
T1 sequence (P11387 1-765): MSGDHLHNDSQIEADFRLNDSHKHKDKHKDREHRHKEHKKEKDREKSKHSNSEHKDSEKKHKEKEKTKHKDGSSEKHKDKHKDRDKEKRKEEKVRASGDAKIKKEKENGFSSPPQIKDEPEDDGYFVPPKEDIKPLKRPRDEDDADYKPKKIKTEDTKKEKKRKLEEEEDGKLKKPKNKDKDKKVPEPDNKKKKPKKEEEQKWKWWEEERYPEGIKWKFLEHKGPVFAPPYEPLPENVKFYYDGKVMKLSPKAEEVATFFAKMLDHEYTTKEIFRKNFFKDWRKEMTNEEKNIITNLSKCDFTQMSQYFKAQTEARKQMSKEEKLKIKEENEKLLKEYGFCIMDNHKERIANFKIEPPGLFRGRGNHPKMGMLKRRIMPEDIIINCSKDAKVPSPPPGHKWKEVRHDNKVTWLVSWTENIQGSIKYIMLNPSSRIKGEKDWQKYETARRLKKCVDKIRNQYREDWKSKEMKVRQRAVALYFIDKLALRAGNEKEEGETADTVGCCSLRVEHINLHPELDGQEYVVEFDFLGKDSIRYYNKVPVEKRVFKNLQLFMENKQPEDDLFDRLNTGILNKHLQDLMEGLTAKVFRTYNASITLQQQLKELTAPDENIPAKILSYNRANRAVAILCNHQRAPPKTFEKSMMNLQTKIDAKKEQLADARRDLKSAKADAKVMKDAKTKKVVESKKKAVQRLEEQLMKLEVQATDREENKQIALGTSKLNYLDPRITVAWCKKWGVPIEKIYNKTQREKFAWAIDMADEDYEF
The series is described as follows: Top1-mediated DNA cleavage assay. Further details: Top1 inhibitory activity level / Top1 inhibitory activity score: key to the marks not given beside the values. The series is classed as biochemical. The settings on record: for Enzyme Inhibitory Activity Top1: DNA cleavage relative to 1 μM MJ-III-65 (19) and 1 μM camptothecin (18); for Top1 inhibitory activity level: series 1.

The test system of a further series is HOP-62. Description: NCI-60 cytotoxicity, HOP-62. The settings on record: Homo sapiens, HOP-62, read-out: Cytotoxicity (GI50) Lung HOP-62.
In a further series the target is T2, recombinant human TDP2 (Homo sapiens, UniProt O95551).
T2 sequence (O95551 1-362): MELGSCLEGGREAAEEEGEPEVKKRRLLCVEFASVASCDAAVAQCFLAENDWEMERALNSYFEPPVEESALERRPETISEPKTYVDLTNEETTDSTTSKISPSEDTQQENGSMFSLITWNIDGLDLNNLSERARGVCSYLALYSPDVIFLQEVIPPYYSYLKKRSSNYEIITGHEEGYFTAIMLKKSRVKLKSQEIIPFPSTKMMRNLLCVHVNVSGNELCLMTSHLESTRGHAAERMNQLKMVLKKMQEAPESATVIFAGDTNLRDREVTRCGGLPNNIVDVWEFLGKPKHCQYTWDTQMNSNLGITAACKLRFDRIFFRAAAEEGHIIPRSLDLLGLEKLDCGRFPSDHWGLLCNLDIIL
The series is described as follows: Recombinant Tdp2 assay. The format is biochemical.

Series [1] concerns NCI-60 panel of human cancer cell lines. The series is described as follows: NCI-60 screen, mean graph midpoint over all cell lines. The settings on record: for GI50: Homo sapiens.
Another series deals with OVCAR-3. Description: NCI-60 cytotoxicity, OVCAR-3. The settings on record: Homo sapiens, OVCAR-3, read-out: Cytotoxicity (GI50) Ovarian Ovcar-3.
The test system of another series is HCT-116. The series is described as follows: NCI-60 cytotoxicity, HCT-116. The format is cell-based. The settings on record: Homo sapiens, single determinations, Table 2, read-out: Cytotoxicity (GI50) Colon HCT-116.
The test system of a further series is DU-145. The series is described as follows: NCI-60 cytotoxicity, DU-145. The settings on record: Homo sapiens, single determinations, Table 2, read-out: Cytotoxicity (GI50) Prostate DU-145. The series is classed as cell-based.
The mark [2] stands for this setting: semiquantitative scale, in duplicate, Table 1, read-out: Enzyme Inhibitory Activity Tdp1.
[3] abbreviates: semiquantitative scale, in duplicate, Table 1, read-out: Enzyme Inhibitory Activity Tdp2.
The mark [4] stands for this setting: read-out: Cytotoxicity (GI50) MGM.
[5] abbreviates: determined in duplicate, Table 2, read-out: Enzyme Inhibitory Activity Tdp1 (IC50).
The mark [6] stands for this setting: determined in duplicate, Table 2, read-out: Enzyme Inhibitory Activity Tdp2 (IC50).
[7] abbreviates: read-out: Enzyme Inhibitory Activity Tdp2 (IC50).

The text below walks through data of patent publication US10875860B2, “Azaindenoisoquinoline compounds and uses thereof” (Purdue Research Foundation, priority 2016, dated 2020).

Read-outs that look alike come from different tables or passages of the source. Where only a bound is given, the exact number is not on record here.

Sequence of Tdp1 (Q9NUW8 whole entry): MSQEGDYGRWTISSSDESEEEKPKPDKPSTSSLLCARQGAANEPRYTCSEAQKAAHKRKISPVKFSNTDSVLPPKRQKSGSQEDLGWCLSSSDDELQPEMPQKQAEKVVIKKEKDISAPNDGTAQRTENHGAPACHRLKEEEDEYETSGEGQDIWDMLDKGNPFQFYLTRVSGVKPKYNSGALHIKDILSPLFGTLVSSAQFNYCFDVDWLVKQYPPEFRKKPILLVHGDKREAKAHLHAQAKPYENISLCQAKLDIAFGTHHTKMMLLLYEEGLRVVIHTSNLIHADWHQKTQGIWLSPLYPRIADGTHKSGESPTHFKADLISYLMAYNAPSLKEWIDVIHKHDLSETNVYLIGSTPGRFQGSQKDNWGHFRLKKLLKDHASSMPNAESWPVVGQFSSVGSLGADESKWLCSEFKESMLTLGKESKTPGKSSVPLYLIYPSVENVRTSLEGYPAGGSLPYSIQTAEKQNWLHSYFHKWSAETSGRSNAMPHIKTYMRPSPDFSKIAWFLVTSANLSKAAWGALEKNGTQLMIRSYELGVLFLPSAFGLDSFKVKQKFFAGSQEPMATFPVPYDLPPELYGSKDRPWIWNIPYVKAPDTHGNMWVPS
Method for recombinant human TDP2: TDP2 reactions were carried out as described previously with the following modifications. […] Reactions were terminated and treated similarly to whole-cell extract and recombinant Tdp1 reactions (see previous paragraph).

On to `COc1cnc2c(c1)C(=O)c1c-2n(CCCBr)c(=O)c2cc([N+](=O)[O-])ccc12` [Compound 7, 7-Aza-6-(3-bromopropyl)-5,6-dihydro-9-methoxy-3-nitro-5,11-dioxo-11H-indeno[1,2-c]isoquinoline], for which the melting point (in general, the temperature of the solid-liquid transition) lay within 170 to 172 °C. Moreover, on Tdp1 (setting [2]), the IC50 lay within 12000 to 37000 nM. In addition, the GI50 (usually the concentration that inhibits growth by half) in the series with SF-539 came out at 279 nM. For the same molecule, the GI50 with UACC-62 worked out at 82 nM. Moreover, the GI50 in the series on SN12C worked out at 269 nM. The GI50 with MCF-7 turned out to be 46 nM. Also, the “Enzyme Inhibitory Activity Top1” value on Top1 (Table 1) was “++”. The “Top1 inhibitory activity level” value at Top1 was “++”. The GI50 with HOP-62 came out at 58 nM. Further, at recombinant human TDP2 (setting [3]), the IC50 lay in the range of 37000 to 111000 nM. Moreover, the GI50 in series [1] (setting [4]) was determined as 112 nM. In addition, the GI50 in the series with OVCAR-3 was 248 nM.

As for `COc1cnc2c(c1)C(=O)c1c-2n(CCCN2CCN(CCO)CC2)c(=O)c2cc([N+](=O)[O-])ccc12` [Compound 16, 7-Aza-5,6-dihydro-6-[3-(4-(2-hydroxyethyl)piperazin-1-yl)propyl]-9-methoxy-3-nitro-5,11-dioxo-11H-indeno[1,2-c]isoquinoline], the melting point lay within 214 to 216 °C. For the same molecule, the IC50 at Tdp1 (setting [2]) was greater than 111000 nM. In addition, the GI50 in the series on SF-539 amounted to 1700 nM. Moreover, the GI50 in the series with UACC-62 came out at 1220 nM. For the same molecule, the GI50 with MCF-7 is 142 nM. Also, the “Enzyme Inhibitory Activity Top1” value at Top1 (Table 1) is reported as “+++”. Moreover, the “Top1 inhibitory activity level” value on Top1 is listed as “+++”. In addition, in the series on HOP-62, the GI50 turned out to be 2760 nM. The IC50 at recombinant human TDP2 (setting [3]) was greater than 111000 nM. In series [1] (setting [4]), the GI50 amounted to 1660 nM. In addition, in series [1] (read-out: MGM (GI50 mean graph midpoint)), the concentration for 50% growth inhibition (GI50) was 1650 nM. Further, the GI50 in the series with OVCAR-3 turned out to be 1460 nM.

The molecule `COc1cnc2c(c1)C(=O)c1c-2n(CCCN2CCC(N)CC2)c(=O)c2cc([N+](=O)[O-])ccc12` [Compound 17, 6-[3-(4-Aminopiperidin-1-yl)propyl]-7-aza-5,6-dihydro-9-methoxy-3-nitro-5,11-dioxo-11H-indeno[1,2-c]isoquinoline] registered a melting point of 258 to 260 °C. Also, the IC50 on Tdp1 (setting [2]) was in the range of 1000 to 12000 nM. Besides, the “Enzyme Inhibitory Activity Top1” value at Top1 (Table 1) is “++”. Also, the “Top1 inhibitory activity level” value at Top1 is “++”. Also, the IC50 at recombinant human TDP2 (setting [3]) lay in the range of 1000 to 12000 nM. In addition, the “cytotoxicity in the one-concentration preliminary testing” value in [1] (NCI-60 initial 1-concentration test) is “low cytotoxicity”.

Consider `COc1cnc2c(c1)C(=O)c1c-2n(CCCN2CCOCC2)c(=O)c2cc(F)ccc12` [Compound 17a, 3-Fluoro-9-methoxy-6-(3-morpholinopropyl)-5H-pyrido[3′,2′:4,5]cyclopenta[1,2c]-isoquinoline-5,11(6H)-dione], for which the IC50 on Tdp1 (setting [5]) and on recombinant human TDP2 (setting [6]) was greater than 111000 nM throughout. Moreover, the concentration for 50% growth inhibition (GI50) in the series with SF-539 was determined as 228 nM; in the series with UACC-62, 235 nM; in the series on SN12C, 320 nM; in the series with MCF-7 it was 44 nM; in the series with HOP-62, 187 nM; in series [1] (setting [4]), 269 nM. The GI50 in the series on OVCAR-3 stood at 250 nM; in the series with HCT-116, 115 nM; in the series with DU-145, 341 nM. Also, the “Enzyme Inhibitory Activity Top1” value on Top1 (Table 2) is reported as “+++”.

As to `COc1cnc2c(c1)C(=O)c1c-2n(CCCn2ccnc2)c(=O)c2cc(F)ccc12` [Compound 17b, 6-(3-(1H-Imidazol-1-yl)propyl)-3-fluoro-9-methoxy-5H-pyrido[3′,2′:4,5]-cyclo-penta[1,2-c]isoquinoline-5,11(6H)-dione], the IC50 on Tdp1 (setting [5]) and at recombinant human TDP2 (setting [6]) was greater than 111000 nM throughout. In addition, the GI50 is 24 nM in the series with SF-539; 16 nM in the series with UACC-62; less than 10 nM with SN12C; less than 10 nM in the series with MCF-7; less than 10 nM in the series with HOP-62; 33 nM in series [1] (setting [4]). Also, the values for the GI50 in the series on OVCAR-3, with HCT-116 and with DU-145 were 43 nM, less than 10 nM and less than 10 nM, respectively. Moreover, at Top1 (Table 2), the “Enzyme Inhibitory Activity Top1” value is reported as “+++”.

For the molecule `COc1cnc2c(c1)C(=O)c1c-2n(CCCN2CCC(O)CC2)c(=O)c2cc(F)ccc12` [Compound 17d, 3-Fluoro-6-(3-(4-hydroxypiperidin-1-yl)propyl)-9-methoxy-5H-pyrido[3′,2′:4,5]-cyclopenta[1,2-c]-isoquinoline-5,11(6H)-dione], the IC50 on Tdp1 (setting [5]) and at recombinant human TDP2 (setting [6]) was greater than 111000 nM each time. For the same molecule, the GI50 in the series with SF-539 is 295 nM; in the series on UACC-62, 240 nM; in the series with SN12C, 189 nM; with MCF-7 it was 31 nM; in the series on HOP-62, 142 nM; in [1] (setting [4]), 199 nM. The GI50 in the series on OVCAR-3 turned out to be 254 nM; in the series on HCT-116 it was 89 nM; in the series on DU-145, 174 nM. Moreover, the “Enzyme Inhibitory Activity Top1” value on Top1 (Table 2) was “+”.

Turning to `COc1cnc2c(c1)C(=O)c1c-2n(CCCN2CCNCC2)c(=O)c2cc(F)ccc12` [Compound 17e, 3-Fluoro-9-methoxy-6-(3-(piperazin-1-yl)propyl)-5H-pyrido[3′,2′:4,5]cyclopenta-[1,2-c]isoquinoline-5,11(6H)-dione], the IC50 on Tdp1 (setting [5]) was greater than 111000 nM; at recombinant human TDP2 (setting [7]), 107000 ± 5200 nM. For the same molecule, the GI50 stood at 532 nM in the series with SF-539; 1260 nM with UACC-62; 80 nM in the series with SN12C; 34 nM in the series with MCF-7; 66 nM with HOP-62; 218 nM in [1] (setting [4]). The GI50 in the series with OVCAR-3 was found to be 335 nM; in the series with HCT-116, 91 nM; in the series with DU-145 it was 62 nM. In addition, the “Enzyme Inhibitory Activity Top1” value on Top1 (Table 2) is recorded as “+”.

As for `CCNCCCn1c2c(c3ccc(F)cc3c1=O)C(=O)c1cc(OC)cnc1-2` [Compound 17h, 6-(3-(Ethylamino)propyl)-3-fluoro-9-methoxy-5H-pyrido[3′,2′:4,5]cyclopenta[1,2-c]isoquinoline-5,11(6H)-dione], the values for the IC50 at Tdp1 (setting [5]) and on recombinant human TDP2 (setting [7]) were greater than 111000 nM and 104000 nM, respectively. Besides, the GI50 in the series on SF-539 is 320 nM; in the series on UACC-62, 341 nM; with SN12C, 151 nM; in the series with MCF-7 it was 42 nM; in the series on HOP-62 it was 149 nM; in series [1] (setting [4]) it was 229 nM. Moreover, the figures for the GI50 with OVCAR-3, with HCT-116 and in the series on DU-145 were 282 nM, 136 nM and 215 nM, respectively. In addition, the “Enzyme Inhibitory Activity Top1” value on Top1 (Table 2) is “++”.
